Results from patent US10632106B2, “Methods of cancer treatment with 2-(1′H-Indole-3′-carbonyl)-thiazole-4-carboxylic acid methyl ester” (Ariagen, Inc., priority 2009, dated 2020).

Assay: Effects of oral water administration on ITE dosed mice
Format: in vivo
Set-up: key to feces appearance: Moderate; Dry
Conditions: for feces appearance (visual): after one week of dosing
Method: Oral injection of water was initiated at the same day i.p. administration of ITE was started. Daily oral gavage at 10 or 20 ml/kg was performed immediately following daily i.p. injection of ITE or DMSO continuously for the entire duration of the study. Both oral and i.p. injection were accidentally skipped at day 14 due to a mistake of the experimenter(s) and all of the other dosing were executed normally. Bodyweights (individual), food consumed (in group), feces weights (in group), and feces appearance (in group) were recorded every two days. Death of animal(s) and approximate cause of death etc. were also recorded.

[1] = ITE-H 300 mg/kg i.p. + Water-0, day 4
[2] = ITE-H 300 mg/kg i.p. + Water-0, day 6
[3] = ITE-H 300 mg/kg i.p. + Water-0, day 8
[4] = ITE-H 300 mg/kg i.p. + Water-0, day 10
[5] = ITE-H 300 mg/kg i.p. + Water-0, day 12
[6] = ITE-H 300 mg/kg i.p. + Water-0, day 14
[7] = ITE-H 300 mg/kg i.p. + Water-0, day 18 (line r16)
[8] = ITE-H 300 mg/kg i.p. + Water-0, day 18 (line r17)
[9] = ITE-H 300 mg/kg i.p. + Water-0, day 20
[10] = ITE-H 300 mg/kg i.p. + Water-0, day 22
[11] = ITE-H 300 mg/kg i.p. + Water-0, day 24
[12] = ITE-H 300 mg/kg i.p. + Water-0, day 26
[13] = ITE-H 300 mg/kg i.p. + Water-0, day 28
[14] = ITE-H 300 mg/kg i.p. + Water-0, day 30
[15] = ITE-H 300 mg/kg i.p. + Water-0, day 32
[16] = ITE-H 300 mg/kg i.p. + Water-0, day 34
[17] = ITE-H 300 mg/kg i.p. + Water-0, day 36
[18] = ITE-H 300 mg/kg i.p. + Water-H 20 ml/kg, day 4
[19] = ITE-H 300 mg/kg i.p. + Water-H 20 ml/kg, day 6
[20] = ITE-H 300 mg/kg i.p. + Water-H 20 ml/kg, day 8
[21] = ITE-H 300 mg/kg i.p. + Water-H 20 ml/kg, day 10
[22] = ITE-H 300 mg/kg i.p. + Water-H 20 ml/kg, day 12
[23] = ITE-H 300 mg/kg i.p. + Water-H 20 ml/kg, day 14
[24] = ITE-H 300 mg/kg i.p. + Water-H 20 ml/kg, day 18 (line r16)
[25] = ITE-H 300 mg/kg i.p. + Water-H 20 ml/kg, day 18 (line r17)
[26] = ITE-H 300 mg/kg i.p. + Water-H 20 ml/kg, day 20
[27] = ITE-H 300 mg/kg i.p. + Water-H 20 ml/kg, day 22
[28] = ITE-H 300 mg/kg i.p. + Water-H 20 ml/kg, day 24
[29] = ITE-H 300 mg/kg i.p. + Water-H 20 ml/kg, day 26
[30] = ITE-H 300 mg/kg i.p. + Water-H 20 ml/kg, day 28
[31] = ITE-H 300 mg/kg i.p. + Water-H 20 ml/kg, day 30
[32] = ITE-H 300 mg/kg i.p. + Water-H 20 ml/kg, day 32
[33] = ITE-H 300 mg/kg i.p. + Water-H 20 ml/kg, day 34
[34] = ITE-H 300 mg/kg i.p. + Water-L 10 ml/kg, day 4
[35] = ITE-H 300 mg/kg i.p. + Water-L 10 ml/kg, day 6
[36] = ITE-H 300 mg/kg i.p. + Water-L 10 ml/kg, day 8
[37] = ITE-H 300 mg/kg i.p. + Water-L 10 ml/kg, day 10
[38] = ITE-H 300 mg/kg i.p. + Water-L 10 ml/kg, day 12
[39] = ITE-H 300 mg/kg i.p. + Water-L 10 ml/kg, day 14
[40] = ITE-H 300 mg/kg i.p. + Water-L 10 ml/kg, day 18 (line r16)
[41] = ITE-H 300 mg/kg i.p. + Water-L 10 ml/kg, day 18 (line r17)
[42] = ITE-H 300 mg/kg i.p. + Water-L 10 ml/kg, day 20
[43] = ITE-H 300 mg/kg i.p. + Water-L 10 ml/kg, day 22
[44] = ITE-H 300 mg/kg i.p. + Water-L 10 ml/kg, day 24
[45] = ITE-H 300 mg/kg i.p. + Water-L 10 ml/kg, day 26
[46] = ITE-H 300 mg/kg i.p. + Water-L 10 ml/kg, day 28
[47] = ITE-H 300 mg/kg i.p. + Water-L 10 ml/kg, day 30
[48] = ITE-H 300 mg/kg i.p. + Water-L 10 ml/kg, day 32
[49] = ITE-H 300 mg/kg i.p. + Water-L 10 ml/kg, day 34

COC(=O)c1csc(C(=O)c2c[nH]c3ccccc23)n1 [ITE, 2-(1′H-indole-3′-carbonyl)-thiazole-4-carboxylic acid methyl ester]
feces appearance (visual) (ITE high (300 mg/kg)): dry | day at which one mouse died (ITE high dose (300 mg/kg) without oral water administration): 36 days | feces appearance (visual) (ITE low (200 mg/kg)): dry | day at which one mouse died (ITE low dose (200 mg/kg) without oral water administration): 28 days | feces appearance [1]: M | number of mice that died [1]: 0 | feces appearance [2]: M | number of mice that died [2]: 0 | feces appearance [3]: D | number of mice that died [3]: 0 | feces appearance [4]: D | number of mice that died [4]: 0 | feces appearance [5]: D | number of mice that died [5]: 0 | feces appearance [6]: D | number of mice that died [6]: 0 | feces appearance [7]: D | number of mice that died [7]: 0 | feces appearance [8]: D | number of mice that died [8]: 0 | feces appearance [9]: D | number of mice that died [9]: 0 | feces appearance [10]: D | number of mice that died [10]: 0 | feces appearance [11]: D | number of mice that died [11]: 0 | feces appearance [12]: D | number of mice that died [12]: 0 | feces appearance [13]: D | number of mice that died [13]: 0 | feces appearance [14]: D | number of mice that died [14]: 0 | feces appearance [15]: D | number of mice that died [15]: 0 | feces appearance [16]: D | number of mice that died [16]: 0 | feces appearance [17]: D | number of mice that died [17]: 1 | feces appearance [18]: M | number of mice that died [18]: 0 | feces appearance [19]: M | number of mice that died [19]: 0 | feces appearance [20]: D | number of mice that died [20]: 0 | feces appearance [21]: D | number of mice that died [21]: 0 | feces appearance [22]: D | number of mice that died [22]: 0 | feces appearance [23]: D | number of mice that died [23]: 0 | feces appearance [24]: D | number of mice that died [24]: 0 | feces appearance [25]: D | number of mice that died [25]: 0 | feces appearance [26]: D | number of mice that died [26]: 0 | feces appearance [27]: D | number of mice that died [27]: 0 | feces appearance [28]: D | number of mice that died [28]: 0 | feces appearance [29]: D | number of mice that died [29]: 0 | feces appearance [30]: M | number of mice that died [30]: 0 | feces appearance [31]: M | number of mice that died [31]: 0 | feces appearance [32]: M | number of mice that died [32]: 0 | feces appearance [33]: M | number of mice that died [33]: 0 | feces appearance [34]: M | number of mice that died [34]: 0 | feces appearance [35]: M | number of mice that died [35]: 0 | feces appearance [36]: D | number of mice that died [36]: 0 | feces appearance [37]: D | number of mice that died [37]: 0 | feces appearance [38]: D | number of mice that died [38]: 0 | feces appearance [39]: D | number of mice that died [39]: 0 | feces appearance [40]: D | number of mice that died [40]: 0 | feces appearance [41]: D | number of mice that died [41]: 0 | feces appearance [42]: D | number of mice that died [42]: 0 | feces appearance [43]: D | number of mice that died [43]: 0 | feces appearance [44]: D | number of mice that died [44]: 0 | feces appearance [45]: D | number of mice that died [45]: 0 | feces appearance [46]: M | number of mice that died [46]: 0 | feces appearance [47]: M | number of mice that died [47]: 0 | feces appearance [48]: M | number of mice that died [48]: 0 | feces appearance [49]: M | number of mice that died [49]: 0
